Data on one compound can be found in patent US20030119812A1, “Method for decreasing capillary permeability in the retina” (priority 2001, published 2003).

The subject of this experiment is BRB breakdown in mice exposed to vascular endothelial growth factor (VEGF). In words: BRB breakdown quantitated with [3H]-mannitol tracer in mice given intravitreal VEGF. Type of experiment: in vivo, C57B/J6 mice. From the text:
Intraperitoneally administered radiolabeled tracer can be used to quantitate BRB breakdown in mice exposed to vascular endothelial growth factor (VEGF). This technique is particularly advantageous with neonatal mice because of the technical difficulty involved with intravascular injections. Also, the comparison of retinas from injected and control eyes to tissues without a blood-tissue barrier corrects for variations in the amount of isotope injected or absorbed into the circulation.
Ten six- to seven-week-old C57B/J6 mice (Jackson Labs, Bar Harbor, Me.) are weighed to determine the proper dosage of anesthesia and tracer required. Mice are anesthetized with a solution containing 25 mg/kg ketamine (Ketaset; Fort Dodge Animal Health, Fort Dodge, Iowa) and 4 mg/kg rompun (Tranquived; Vedco, St. Joseph, Mo.) diluted 1:10 in saline prior to injection. Five mice are subjected to gavage with 50 mg/kg N-benzoyl staurosporine for three days prior to intravitreal administration of VEGF; the other five mice are subjected to gavage with vehicle.
Tropicamide (1%) is used to dilate the pupils of anesthetized mice. Under a dissecting microscope, a Harvard injector (PLI 100) is used with a glass pipet pulled to a diameter of 13-20 μm to inject 1 μl of saline containing VEGF (R&D Systems, Minneapolis, Minn.). The eyes are entered posterior to the limbus, directing the pipet toward the optic nerve. The solution is then deposited just in front of the retina without inflicting any damage to the lens. […]
One ml NCSII (Amersham, Chicago, Ill.) solubilizing solution is added to each vial and the vials are incubated overnight in a 50° C. water bath. […] The specimens are counted on a Wallac 1409 Liquid Scintillation Counter (Gaithersburg, :Md.).
The counts per mg tissue are determined for treated (with N-benzoyl staurosporine) and untreated retina, lung, and kidney. Ratios of these values for treated or untreated retina/lung or kidney and for lung/kidney are calculated. […]

With `CO[C@@H]1[C@H](N(C)C(=O)c2ccccc2)C[C@H]2O[C@]1(C)n1c3ccccc3c3c4c(c5c6ccccc6n2c5c31)C(=O)NC4` [N-benzoyl staurosporine], under “50 mg/kg N-benzoyl staurosporine by gavage versus vehicle gavage, before intravitreal VEGF”, the “radioactivity in the retinas (leakage of radioactive tracer out of the retinal blood vessels)” value is listed as “significantly less radioactivity”. In addition, under “50 mg/kg by gavage for three days before intravitreal VEGF 10^-6 M, [3H]-mannitol at 6 hours, VEGF/vehicle 0.6806±0.1060, Student-t value 0.0201”, the retina/kidney ratio is reported as 0.3881±0.0436. Also, the “retina/lung ratio (cpm per mg of retina/cpm per mg of lung)” value (50 mg/kg by gavage for three days before intravitreal VEGF 10^-6 M, [3H]-mannitol at 6 hours, VEGF/vehicle 0.8785±0.0946, Student-t value 0.0467) is on record as 0.6326±0.0656.
